Literature values as cited in patent publication US12611397B1, “Pharmaceutical composition of darolutamide” (ORION CORPORATION, priority 2019, dated 2026).

Solubility in water: poorly soluble in water
Compound: CC(O)c1cc(C(=O)N[C@@H](C)Cn2ccc(-c3ccc(C#N)c(Cl)c3)n2)[nH]n1 (stereo partly drawn) [Darolutamide, N—((S)-1-(3-(3-chloro-4-cyanophenyl)-1H-pyrazol-1-yl)-propan-2-yl)-5-(1-hydroxyethyl)-1H-pyrazole-3-carboxamide]
